# Earlier results as cited in patent US20180206518A1, “METHOD OF MAKING CANNABIS OIL H[…] E[…] RELATED CANNABINOID COMPOSITIONS” (priority 2016, published 2018).
# Settings: edible cannabis products, depending on liver function
structure (smiles),measurement,value
"CCCCCc1cc(O)c2c(c1)OC(C)(C)[C@@H]1CCC(C)=CC21 (stereo partly shown) [THC, Δ9-tetrahydrocannabinol]",THC able to be metabolized,2-6%
